The results in this text go back to patent US12043600B2, “Microbiocidal compounds” (SYNGENTA CROP PROTECTION AG, priority 2018, dated 2024).

Where two headings read alike, the source gives them in different places.

For data set [1], the system named is Phakopsora pachyrhizi. Description: Phakopsora pachyrhizi/Soybean/Preventative (Soybean Rust). Format: in vivo. The conditions noted are these: 288 h.
Data set [2] deals with Monographella nivalis (Microdochium nivale). The experiment in a line: Monographella nivalis (Microdochium nivale)/Liquid Culture (Foot Rot Cereals). The format is cell-based. As to conditions: liquid culture, compared to untreated control. The method, then: (§1) Conidia of the fungus from cryogenic storage are directly mixed into nutrient broth (PDB potato dextrose broth). After placing a (DMSO) solution of test compound into a microtiter plate (96-well format), the nutrient broth containing the fungal spores is added.

Data set [3] has as its system Magnaporthe grisea (Pyricularia oryzae). The experiment in a line: whole plant or invertebrate. Format: in vivo. The conditions noted are these: foliar, read-out: control of Magnaporthe grisea.
The subject of data set [4] is Mycosphaerella arachidis (Cercospora arachidicola). Description: Mycosphaerella arachidis (Cercospora arachidicola)/Liquid Culture (Early Leaf Spot). The format is cell-based. The conditions noted are these: liquid culture, compared to untreated control. The method, then: as §1
For data set [5], the system named is Mycosphaerella graminicola (Septoria tritici). The experiment in a line: Mycosphaerella graminicola (Septoria tritici)/Liquid Culture (Septoria Blotch). Format: cell-based. As to conditions: Zymoseptoria tritici; for inhibition of growth at 20 ppm: liquid culture, compared to untreated control. The method, then: Conidia of the fungus from cryogenic storage are directly mixed into nutrient broth (PDB potato dextrose broth). After placing a (DMSO) solution of test compound into a microtiter plate (96-well format), the nutrient broth containing the fungal spores is added. […] The data are presented as the percentage of disease control of each compound for the biological tests against G. lagenarium (Example B3), P. recondita preventative (Example B13), P. teres (Example B15) and M. graminicola (Example B19) as described above. The testing rates of each biological test is specifically described in table C1 below.

The test system of data set [6] is Phaeosphaeria nodorum (Septoria nodorum). The experiment in a line: Phaeosphaeria nodorum (Septoria nodorum)/Wheat/Leaf Disc Preventative (Glume Blotch). The format is in vivo. As to conditions: Parastagonospora nodorum, foliar, wheat leaf disc preventative, compared to untreated control. The method, then:
Wheat leaf segments cv. Kanzler are placed on agar in a multiwell plate (24-well format) and sprayed with the formulated test compound diluted in water. The leaf disks are inoculated with a spore suspension of the fungus 2 days after application. The inoculated test leaf disks are incubated at 20° C. and 75% rh under a light regime of 12 h light/12 h darkness in a climate cabinet and the activity of a compound is assessed as percent disease control compared to untreated when an appropriate level of disease damage appears in untreated check leaf disks (5-7 days after application).

The subject of data set [7] is Phytophthora infestans. Description: whole plant or invertebrate. The format is in vivo. As to conditions: in Solanum lycopersicum, foliar, read-out: control of Phytophthora infestans.
Data set [8] concerns Plasmopara viticola. The experiment in a line: whole plant or invertebrate. Format: in vivo. As to conditions: foliar, read-out: control of Plasmopara viticola.
The test system of data set [9] is Blumeria graminis f. sp. tritici (Erysiphe graminis f. sp. tritici). Description: Blumeria graminis f. sp. tritici/Wheat/Leaf Disc Preventative (Powdery Mildew on Wheat). The format is in vivo. As to conditions: foliar, wheat leaf disc preventative, compared to untreated control. The method, then:
Wheat leaf segments cv. Kanzler are placed on agar in a multiwell plate (24-well format) and sprayed with the formulated test compound diluted in water. The leaf disks are inoculated by shaking powdery mildew infected plants above the test plates 1 day after application. The inoculated leaf disks are incubated at 20° C. and 60% rh under a light regime of 24 h darkness followed by 12 h light/12 h darkness in a climate chamber and the activity of a compound is assessed as percent disease control compared to untreated when an appropriate level of disease damage appears on untreated check leaf segments (6-8 days after application).

Data set [10] concerns Puccinia recondita f. sp. tritici. The experiment in a line: Puccinia recondita f. sp. tritici/Wheat/Leaf Disc Preventative (Brown Rust). Format: in vivo. As to conditions: foliar; for pest or weed control at 200 ppm: wheat leaf disc preventative, compared to untreated control, read-out: control of Puccinia recondita f. sp. tritici.
The test system of data set [11] is Glomerella lagenarium (Colletotrichum lagenarium). Description: Glomerella lagenarium (Colletotrichum lagenarium)/Liquid Culture (Anthracnose). Format: cell-based. As to conditions: Colletotrichum orbiculare, liquid culture, compared to untreated control.
Setting [12] is: Phakopsora pachyrhizi (Soybean rust).
[13] abbreviates: Phakopsora pachyrhizi (Soybean rust), read-out: control (%).
The mark [14] stands for this setting: foliar, soybean leaf disc preventative, compared to untreated control, read-out: control of Phakopsora pachyrhizi.

In data set [1] (setting [12]), `CO/C=C(\Oc1cc(-c2cccc(C(F)(F)F)n2)ccc1C)C(=O)OC` [Compound X-3, reference compound] returned a pest or weed control at 0.6 ppm of 0%, a pest or weed control at 2 ppm of 0%, a pest or weed control at 6 ppm of 0% and a pest or weed control at 20 ppm of 10%. Moreover, in data set [1] (setting [12]), the pest or weed control at 60 ppm stood at 50%. The pest or weed control at 200 ppm in data set [1] (setting [13]) amounted to 85%.

One may read the melting point as the temperature of the solid-liquid transition. Molecule `CO/C=C(\Oc1cc(-n2cc(Br)c(C3CCCCC3)n2)ccc1C)C(=O)OC` [Compound E-10, methyl (Z)-2-[5-(4-bromo-3-cyclohexyl-pyrazol-1-yl)-2-methyl-phenoxy]-3-methoxy-prop-2-enoate] yielded a melting point of 120 to 126 °C. In data set [2], the inhibition of growth at 20 ppm is ≥ 80%. Besides, in data set [3], the pest or weed control at 200 ppm is ≥ 80%. Also, in data set [4], the inhibition of growth at 20 ppm was ≥ 80%. Moreover, in data set [5], the inhibition of growth at 20 ppm was ≥ 80%.

Turning to `CO/C=C(\Oc1cc(-n2ccc(C(F)(F)F)n2)cc(F)c1C)C(=O)OC` [Compound E-3, methyl (Z)-2-[3-fluoro-2-methyl-5-[3-(trifluoromethyl)pyrazol-1-yl]phenoxy]-3-methoxy-prop-2-enoate], the melting point was in the range of 133 to 135 °C. The inhibition of growth at 20 ppm in [2] is ≥ 80%. Also, the pest or weed control at 200 ppm in data set [6] is ≥ 80%. Also, the pest or weed control at 200 ppm in data set [1] (setting [14]) is ≥ 50%. Besides, the pest or weed control at 200 ppm in [7] is ≥ 80%. Also, in [8], the pest or weed control at 200 ppm is ≥ 80%. In data set [4], the inhibition of growth at 20 ppm is ≥ 80%. Moreover, in data set [9], the pest or weed control at 200 ppm was ≥ 80%. Besides, the inhibition of growth at 20 ppm in [5] was ≥ 80%. In addition, the pest or weed control at 200 ppm in data set [10] is ≥ 80%.

For the molecule `CCCOc1ccn(-c2ccc(C)c(O/C(=C\OC)C(=O)OC)c2)n1` [Compound E-13, methyl (Z)-3-methoxy-2-[2-methyl-5-(3-propoxypyrazol-1-yl)phenoxy]prop-2-enoate], the melting point lay in the range of 85 to 87 °C.

As to `CO/C=C(\Oc1cc(-n2ccc(C(F)(F)F)n2)cc(OC)c1C)C(=O)OC` [Compound E-22, methyl (Z)-3-methoxy-2-[3-methoxy-2-methyl-5-[3-(trifluoromethyl)pyrazol-1-yl]phenoxy]prop-2-enoate], the melting point lay in the range of 153 to 156 °C. Further, in data set [2], the inhibition of growth at 20 ppm is ≥ 80%. Besides, the pest or weed control at 200 ppm in data set [7] was ≥ 80%. Besides, the inhibition of growth at 20 ppm in data set [4] was ≥ 80%. In addition, in data set [9], the pest or weed control at 200 ppm was ≥ 80%. In addition, in [5], the inhibition of growth at 20 ppm is ≥ 80%. For the same molecule, in data set [10], the pest or weed control at 200 ppm was ≥ 80%.

For the molecule `CO/C=C(\Oc1cc(-n2ccc(Br)n2)ccc1Br)C(=O)OC` [Compound E-84, methyl (Z)-2-[2-bromo-5-(3-bromopyrazol-1-yl)phenoxy]-3-methoxy-prop-2-enoate], the inhibition of growth at 20 ppm in data set [2], in [11], in data set [4] and in data set [5] was ≥ 80% throughout. The pest or weed control at 200 ppm in [6] is ≥ 80%; in data set [1] (setting [14]), ≥ 50%; in data set [8], ≥ 80%; in [9] it was ≥ 80%; in [10], ≥ 80%.

`CO/C=C(\Oc1cccc(-n2ccc(C)n2)c1)C(=O)OC` [Compound E-9, methyl (Z)-3-methoxy-2-[3-(3-methylpyrazol-1-yl)phenoxy]prop-2-enoate]: the inhibition of growth at 20 ppm in [2], in data set [4] and in data set [5] was ≥ 80% in each case.

The molecule `CO/C=C(\Oc1cc(-n2ccc(CSC)n2)ccc1C)C(=O)OC` [Compound E-76, methyl (Z)-3-methoxy-2-[2-methyl-5-[3-(methylsulfanylmethyl)pyrazol-1-yl]phenoxy]prop-2-enoate] yielded a melting point of 78 to 80 °C. The inhibition of growth at 20 ppm in data set [2] is ≥ 80%. In data set [7], the pest or weed control at 200 ppm is ≥ 80%. Besides, in data set [8], the pest or weed control at 200 ppm was ≥ 80%. Moreover, in data set [3], the pest or weed control at 200 ppm is ≥ 80%. Also, the inhibition of growth at 20 ppm in data set [4] was ≥ 80%. The inhibition of growth at 20 ppm in data set [5] is ≥ 80%. Also, the pest or weed control at 200 ppm in data set [10] was ≥ 80%.

In the case of `CCc1ccc(-n2ccc(C)n2)cc1O/C(=C\OC)C(=O)OC` [Compound E-107, methyl (Z)-2-[2-ethyl-5-(3-methylpyrazol-1-yl)phenoxy]-3-methoxy-prop-2-enoate], the melting point lay within 169 to 171 °C. Moreover, the inhibition of growth at 20 ppm in [5] was ≥ 80%. Moreover, in data set [10], the pest or weed control at 200 ppm is ≥ 80%.

On to `CCC(CC)c1ccn(-c2ccc(C)c(O/C(=C\OC)C(=O)OC)c2)n1` [Compound E-4, methyl (Z)-2-[5-[3-(1-ethylpropyl)pyrazol-1-yl]-2-methyl-phenoxy]-3-methoxy-prop-2-enoate], for which the melting point was 108 to 111 °C. The inhibition of growth at 20 ppm in data set [2] is ≥ 80%. Moreover, in data set [6], the pest or weed control at 200 ppm was ≥ 80%. Also, the pest or weed control at 200 ppm in [1] (setting [14]) is ≥ 50%. In data set [7], the pest or weed control at 200 ppm is ≥ 80%. For the same molecule, the inhibition of growth at 20 ppm in data set [4] is ≥ 80%. The pest or weed control at 200 ppm in [9] was ≥ 80%. Besides, the inhibition of growth at 20 ppm in data set [5] is ≥ 80%. The pest or weed control at 200 ppm in data set [10] was ≥ 80%.

On to `CCCc1ccn(-c2ccc(C)c(O/C(=C\OC)C(=O)OC)c2)n1` [drawing 151], for which the inhibition of growth at 6 ppm in data set [5] (M. graminicola (B19), 6 ppm, read-out: Disease control (%)) is 100%. Moreover, in data set [10] (P. recondita prev (B13), 60 ppm, read-out: Disease control (%)), the pest or weed control at 60 ppm was determined as 70%.

Take `CO/C=C(\Oc1cc(-n2cccc2)ccc1C)C(=O)OC` [Compound X-2, reference compound]: in data set [1] (setting [12]), the pest or weed control at 0.6 ppm was 0%, the pest or weed control at 2 ppm stood at 0%, the pest or weed control at 6 ppm was found to be 0% and the pest or weed control at 20 ppm was found to be 0%. In data set [1] (setting [12]), this molecule returned a pest or weed control at 60 ppm of 70%. Besides, the pest or weed control at 200 ppm in data set [1] (setting [13]) was 100%.

The molecule `CO/C=C(\Oc1cc(-n2ccc(C)n2)ccc1C1CC1)C(=O)OC` [Compound E-106, methyl (Z)-2-[2-cyclopropyl-5-(3-methylpyrazol-1-yl)phenoxy]-3-methoxy-prop-2-enoate] had a melting point of 189 to 191 °C. Besides, the pest or weed control at 200 ppm in [8] was ≥ 80%. For the same molecule, in data set [10], the pest or weed control at 200 ppm was ≥ 80%.

Turning to `CO/C=C(\Oc1cc(-n2cc(Cl)c(Cl)n2)ccc1C)C(=O)OC` [Compound E-111, methyl (Z)-2-[5-(3,4-dichloropyrazol-1-yl)-2-methyl-phenoxy]-3-methoxy-prop-2-enoate], the melting point was in the range of 140 to 144 °C. Besides, the inhibition of growth at 20 ppm in data set [2] was ≥ 80%. Also, in data set [6], the pest or weed control at 200 ppm was ≥ 80%. Moreover, the inhibition of growth at 20 ppm in data set [11] was ≥ 80%. Also, the pest or weed control at 200 ppm in [8] is ≥ 80%. In addition, the inhibition of growth at 20 ppm in data set [4] is ≥ 80%. Besides, the pest or weed control at 200 ppm in [9] is ≥ 80%.

As for `CO/C=C(\Oc1cccc(-n2ccc(C3CC3)n2)c1)C(=O)OC` [Compound E-14, methyl (Z)-2-[3-(3-cyclopropylpyrazol-1-yl)phenoxy]-3-methoxy-prop-2-enoate], the inhibition of growth at 20 ppm in data set [2], in data set [11], in [4] and in data set [5] was ≥ 80% in each case.
